{"source": "patent EP3409761B1", "about": "“CULTURE MEDIUM COMPOSITION, AND METHOD FOR CULTURING CELL OR TISSUE USING SAID COMPOSITION” (Nissan Chemical Corporation, priority 2012, dated 2014)", "format_in_all_cases": "cell-based", "key": {"[1]": {"system": "human cervical cancer cell line HeLa", "test": "Comparison with single layer culture method using agent for inducing apoptosis", "conditions": "day 4", "method": "This aqueous solution was sterilized at 121°C for 20 min in an autoclave. […] Each plate was cultured by being stood still in a CO2 incubator (37°C, 5% CO2). […] To the culture medium on day 4 was added an ATP reagent (150 µL) (CellTiter-Glo (registered trade mark) Luminescent Cell Viability Assay, manufactured by Promega) to give a suspension, which was stood for about 10 min at room temperature, and the luminescence intensity (RLU value) was measured by FlexStation3 (manufactured by Molecular Devices), and the number of viable cells was measured by subtracting the luminescence value of the medium alone. For WST-8 measurement, a WST-8 solution (manufactured by DOJINDO Laboratories, 15 µL) was added, the mixture was incubated at 37°C for 100 min, the absorbance at 450 nm was measured by an absorbance spectrometer (manufactured by Molecular Devices, SPECTRA MAX 190), and the number of viable cells was measured by subtracting the absorbance of the medium alone."}, "[2]": {"system": "human cervical cancer cell line HeLa", "test": "Cell proliferation test using various anticancer drugs", "conditions": "DAG 0.030% medium; for cell density: 5 days later", "method": "This aqueous solution was sterilized at 121°C for 20 min in an autoclave. […] The anticancer drug used was Adriamycin (manufactured by WAKO), Paclitaxel (manufactured by WAKO) or Mitomycin C (manufactured by WAKO).\nSuccessively, this plate was cultured by being stood still in a CO2 incubator (37°C, 5% CO2) for 7 days. After culturing for 3, 5, 7 days, to the culture medium was added a WST-8 solution (manufactured by DOJINDO Laboratories, 20 µL), and the mixture was incubated at 37°C for 100 min. The absorbance at 450 nm was measured by an absorbance spectrometer (manufactured by Molecular Devices, SPECTRA MAX 190), and the number of viable cells was measured by subtracting the absorbance of the medium alone. The culture medium containing the cells after 5 days of culture was stirred with a pipette and the obtained stirred solution (20 µL) was mixed with Trypan Blue stain 0.4% (manufactured by Invitrogen, 20 µL) and the cell density was measured under a microscope."}, "[3]": {"system": "human cervical cancer cell line HeLa", "test": "Comparison with single layer culture method in cell proliferation test using anticancer drug", "conditions": "day 4", "method": "This aqueous solution was sterilized at 121°C for 20 min in an autoclave. […] Each plate was cultured by being stood still in a CO2 incubator (37°C, 5% CO2). […] The anticancer drug used was Adriamycin (manufactured by WAKO), Paclitaxel (manufactured by WAKO) or Mitomycin C (manufactured by WAKO). To the culture medium on day 4 was added an ATP reagent (150 µL) (CellTiter-Glo (registered trade mark) Luminescent Cell Viability Assay, manufactured by Promega) to give a suspension, which was stood for about 10 min at room temperature, and the luminescence intensity (RLU value) was measured by FlexStation3 (manufactured by Molecular Devices), and the number of viable cells was measured by subtracting the luminescence value of the medium alone. For WST-8 measurement, a WST-8 solution (manufactured by DOJINDO Laboratories, 15 µL) was added, the mixture was incubated at 37°C for 100 min, the absorbance at 450 nm was measured by an absorbance spectrometer (manufactured by Molecular Devices, SPECTRA MAX 190), and the number of viable cells was measured by subtracting the absorbance of the medium alone."}, "[4]": {"conditions": "agent 1 µM, deacylated gellan gum addition group (0.015%)"}, "[5]": {"conditions": "agent 1 µM, single layer culture group"}, "[6]": {"conditions": "agent 10 µM, deacylated gellan gum addition group (0.015%)"}, "[7]": {"conditions": "agent 10 µM, single layer culture group"}, "[8]": {"conditions": "drug 0.001 µM, deacylated gellan gum addition group (0.015%)"}, "[9]": {"conditions": "drug 0.001 µM, single layer culture group"}, "[10]": {"conditions": "drug 0.01 µM, deacylated gellan gum addition group (0.015%)"}, "[11]": {"conditions": "drug 0.01 µM, single layer culture group"}, "[12]": {"conditions": "drug 0.1 µM, deacylated gellan gum addition group (0.015%)"}, "[13]": {"conditions": "drug 0.1 µM, single layer culture group"}, "[14]": {"conditions": "drug 1 µM, deacylated gellan gum addition group (0.015%)"}, "[15]": {"conditions": "drug 1 µM, single layer culture group"}, "[16]": {"conditions": "agent 0.2 µM, deacylated gellan gum addition group (0.015%)"}, "[17]": {"conditions": "agent 0.2 µM, single layer culture group"}, "[18]": {"conditions": "agent 2 µM, deacylated gellan gum addition group (0.015%)"}, "[19]": {"conditions": "agent 2 µM, single layer culture group"}}, "note": "Starred links: 1 amine or outer side, 2 acyl side, 3 side chain; linkers in the order of their positions; H or OH if unused. Positions of bridges follow the written chain, without caps; N, C: chain ends. Non-standard residues stand in square brackets, D forms with d. Residues, ends and D or L forms follow the SMILES beside them. Chains are numbered I, II in the order given. Actinocin(9to1) = Cc1c2oc3c(C)ccc(C(=O)[*:1])c3nc-2c(C(=O)[*:2])c(N)c1=O; NMeV = CN[C@H](C(=O)O)C(C)C; Sar = CNCC(=O)O", "data": [{"smiles": "Cc1c2oc3c(C)ccc(C(=O)N[C@@H]4C(=O)N[C@H](C(C)C)C(=O)N5CCC[C@H]5C(=O)N(C)CC(=O)N(C)[C@@H](C(C)C)C(=O)O[C@@H]4C)c3nc-2c(C(=O)N[C@@H]2C(=O)N[C@H](C(C)C)C(=O)N3CCC[C@H]3C(=O)N(C)CC(=O)N(C)[C@@H](C(C)C)C(=O)O[C@@H]2C)c(N)c1=O", "note": "[Actinomycin D] (I: T[dV]P[Sar][NMeV] / II: T[dV]P[Sar][NMeV]; ester I:1-I:C, II:1-II:C; linker I:N-II:N via Actinocin(9to1))", "values": [{"measurement": "% Control value of the RLU value (ATP measurement)", "setting": "[1]; [4]", "value": 4, "unit": "% Control"}, {"measurement": "% Control value of the absorbance at 450 nm (WST-8 measurement)", "setting": "[1]; [4]", "value": 3, "unit": "% Control"}, {"measurement": "% Control value of the RLU value (ATP measurement)", "setting": "[1]; [5]", "value": 2, "unit": "% Control"}, {"measurement": "% Control value of the absorbance at 450 nm (WST-8 measurement)", "setting": "[1]; [5]", "value": 2, "unit": "% Control"}, {"measurement": "% Control value of the RLU value (ATP measurement)", "setting": "[1]; [6]", "value": 6, "unit": "% Control"}, {"measurement": "% Control value of the absorbance at 450 nm (WST-8 measurement)", "setting": "[1]; [6]", "value": 12, "unit": "% Control"}, {"measurement": "% Control value of the RLU value (ATP measurement)", "setting": "[1]; [7]", "value": 2, "unit": "% Control"}, {"measurement": "% Control value of the absorbance at 450 nm (WST-8 measurement)", "setting": "[1]; [7]", "value": 4, "unit": "% Control"}]}, {"smiles": "COc1cccc2c1C(=O)c1c(O)c3c(c(O)c1C2=O)C[C@@](O)(C(=O)CO)C[C@@H]3O[C@H]1C[C@H](N)[C@H](O)[C@H](C)O1", "note": "[Adriamycin]", "values": [{"measurement": "cell density", "setting": "[2]; drug 0.001 µM", "value": "5.1 10^4 cells/mL"}, {"measurement": "cell number (absorbance at 450 nm, WST-8)", "setting": "[2]; drug 0.001 µM, day 3", "value": 0.237}, {"measurement": "cell number (absorbance at 450 nm, WST-8)", "setting": "[2]; drug 0.001 µM, day 5", "value": 0.246}, {"measurement": "cell number (absorbance at 450 nm, WST-8)", "setting": "[2]; drug 0.001 µM, day 7", "value": 0.184}, {"measurement": "cell density", "setting": "[2]; drug 0.01 µM", "value": "2.6 10^4 cells/mL"}, {"measurement": "cell number (absorbance at 450 nm, WST-8)", "setting": "[2]; drug 0.01 µM, day 3", "value": 0.230}, {"measurement": "cell number (absorbance at 450 nm, WST-8)", "setting": "[2]; drug 0.01 µM, day 5", "value": 0.098}, {"measurement": "cell number (absorbance at 450 nm, WST-8)", "setting": "[2]; drug 0.01 µM, day 7", "value": 0.068}, {"measurement": "cell density", "setting": "[2]; drug 0.1 µM", "value": "1.7 10^4 cells/mL"}, {"measurement": "cell number (absorbance at 450 nm, WST-8)", "setting": "[2]; drug 0.1 µM, day 3", "value": 0.037}, {"measurement": "cell number (absorbance at 450 nm, WST-8)", "setting": "[2]; drug 0.1 µM, day 5", "value": 0.005}, {"measurement": "cell number (absorbance at 450 nm, WST-8)", "setting": "[2]; drug 0.1 µM, day 7", "value": "< 0"}, {"measurement": "cell density", "setting": "[2]; drug 1 µM", "value": "0.6 10^4 cells/mL"}, {"measurement": "cell number (absorbance at 450 nm, WST-8)", "setting": "[2]; drug 1 µM, day 3", "value": "< 0"}, {"measurement": "cell number (absorbance at 450 nm, WST-8)", "setting": "[2]; drug 1 µM, day 5", "value": "< 0"}, {"measurement": "cell number (absorbance at 450 nm, WST-8)", "setting": "[2]; drug 1 µM, day 7", "value": "< 0"}, {"measurement": "% Control value of the RLU value (ATP measurement)", "setting": "[3]; [8]", "value": 96, "unit": "% Control"}, {"measurement": "% Control value of the absorbance at 450 nm (WST-8 measurement)", "setting": "[3]; [8]", "value": 105, "unit": "% Control"}, {"measurement": "% Control value of the RLU value (ATP measurement)", "setting": "[3]; [9]", "value": 97, "unit": "% Control"}, {"measurement": "% Control value of the absorbance at 450 nm (WST-8 measurement)", "setting": "[3]; [9]", "value": 109, "unit": "% Control"}, {"measurement": "% Control value of the RLU value (ATP measurement)", "setting": "[3]; [10]", "value": 81, "unit": "% Control"}, {"measurement": "% Control value of the absorbance at 450 nm (WST-8 measurement)", "setting": "[3]; [10]", "value": 86, "unit": "% Control"}, {"measurement": "% Control value of the RLU value (ATP measurement)", "setting": "[3]; [11]", "value": 97, "unit": "% Control"}, {"measurement": "% Control value of the absorbance at 450 nm (WST-8 measurement)", "setting": "[3]; [11]", "value": 107, "unit": "% Control"}, {"measurement": "% Control value of the RLU value (ATP measurement)", "setting": "[3]; [12]", "value": 41, "unit": "% Control"}, {"measurement": "% Control value of the absorbance at 450 nm (WST-8 measurement)", "setting": "[3]; [12]", "value": 36, "unit": "% Control"}, {"measurement": "% Control value of the RLU value (ATP measurement)", "setting": "[3]; [13]", "value": 65, "unit": "% Control"}, {"measurement": "% Control value of the absorbance at 450 nm (WST-8 measurement)", "setting": "[3]; [13]", "value": 74, "unit": "% Control"}, {"measurement": "% Control value of the RLU value (ATP measurement)", "setting": "[3]; [14]", "value": 15, "unit": "% Control"}, {"measurement": "% Control value of the absorbance at 450 nm (WST-8 measurement)", "setting": "[3]; [14]", "value": 4, "unit": "% Control"}, {"measurement": "% Control value of the RLU value (ATP measurement)", "setting": "[3]; [15]", "value": 5, "unit": "% Control"}, {"measurement": "% Control value of the absorbance at 450 nm (WST-8 measurement)", "setting": "[3]; [15]", "value": 6, "unit": "% Control"}, {"measurement": "% Control value of the RLU value (ATP measurement)", "setting": "[1]; [4]", "value": 5, "unit": "% Control"}, {"measurement": "% Control value of the absorbance at 450 nm (WST-8 measurement)", "setting": "[1]; [4]", "value": 3, "unit": "% Control"}, {"measurement": "% Control value of the RLU value (ATP measurement)", "setting": "[1]; [5]", "value": 3, "unit": "% Control"}, {"measurement": "% Control value of the absorbance at 450 nm (WST-8 measurement)", "setting": "[1]; [5]", "value": 3, "unit": "% Control"}]}, {"smiles": "CC[C@@]1(O)C(=O)OCc2c1cc1n(c2=O)Cc2cc3ccccc3nc2-1", "note": "[Camptothecin]", "values": [{"measurement": "% Control value of the RLU value (ATP measurement)", "setting": "[1]; [16]", "value": 27, "unit": "% Control"}, {"measurement": "% Control value of the absorbance at 450 nm (WST-8 measurement)", "setting": "[1]; [16]", "value": 24, "unit": "% Control"}, {"measurement": "% Control value of the RLU value (ATP measurement)", "setting": "[1]; [17]", "value": 63, "unit": "% Control"}, {"measurement": "% Control value of the absorbance at 450 nm (WST-8 measurement)", "setting": "[1]; [17]", "value": 68, "unit": "% Control"}, {"measurement": "% Control value of the RLU value (ATP measurement)", "setting": "[1]; [18]", "value": 11, "unit": "% Control"}, {"measurement": "% Control value of the absorbance at 450 nm (WST-8 measurement)", "setting": "[1]; [18]", "value": 7, "unit": "% Control"}, {"measurement": "% Control value of the RLU value (ATP measurement)", "setting": "[1]; [19]", "value": 44, "unit": "% Control"}, {"measurement": "% Control value of the absorbance at 450 nm (WST-8 measurement)", "setting": "[1]; [19]", "value": 28, "unit": "% Control"}]}]}
